{"source": "paper PMC8251916", "about": "(Chemistry (Weinheim an Der Bergstrasse, Germany), 2021)", "key": {"[1]": {"test_system": "telo23-K+ (hybrid type human telomeric G4)", "experiment": "UV-Vis titration, telo23-K+", "type": "binding", "conditions": "for Ka, telo23-K+: UV-Vis titration", "procedure": "(§1) To obtain quantitative information on the binding of NDI 1 and PDI 3 to the previously assessed G4 and duplex DNA structures, ultraviolet‐visible absorbance spectroscopy (UV‐Vis) titrations were conducted (Figure 3 and S10). In all cases the ligand concentration was kept constant at 10 μM, whilst oligonucleotide was titrated in up to a final concentration of 30 μM. The observed binding isotherms were fitted to an independent/equivalent sites binding model, and binding constants (K a) were determined. […]\n(§2) telo22-Na+ (antiparallel basket […]\n(§3) telo23 and telo22 were selected as models for the human telomeric G-quadruplex under K+ and Na+ conditions, respectively, as they have been the subject of detailed structural studies,[S8,S9] […]\n(§4) used. telo23 forms primarily a (3+1) hybrid structure under K+ conditions,[S8] whilst telo22 forms a single antiparallel fold.[S9]\nThe oligonucleotides were at a concentration of 5 µM and the buffers used were either potassium phosphate (100 mM, pH 7.4) for telo23-K+, EBR1-K+ and ds26-K+ or sodium phosphate (100 mM, pH 7.4) for telo22-Na+. The reported spectrum for each sample represents the average of 3 scans and is baseline corrected for the buffer used. Data processing was carried out using Prism 7 (GraphPad Software) with a 4-point second order smoothing polynomial applied to all spectra. Observed ellipticities were converted to molar ellipticity.\n(§5) UV-Visible Absorbance Spectroscopy\nAbsorbance spectra were recorded on a Cary 60 UV-Visible (UV-Vis) spectrophotometer using a room-light immune fibre optic probe with 10 mm path length. The UV-Vis spectra were […]\nwere corrected for background and buffer absorbance. The oligonucleotides and buffer conditions were the same as employed in the CD experiments.\nIn the titrations, the concentration of ligand was fixed at 10 µM in an initial volume of 500 µL.\nAliquots of oligonucleotide were added using a microsyringe from a 100 µM stock solution in appropriate buffer containing also 10 µM ligand to maintain constant ligand concentration.\nNote: the oligonucleotide solution was annealed by heating to 90 °C for 2 minutes and then cooling on ice prior to the addition of ligand (to avoid annealing in the presence of ligand).\nFollowing addition, the solution was mixed thoroughly and the UV-visible spectrum was […]"}, "[2]": {"test_system": "telo22-Na+ (antiparallel basket human telomeric G4)", "experiment": "UV-Vis titration, telo22-Na+", "type": "binding", "procedure": "as §1, §2, §3, §4\n(§6) The oligonucleotides were at a concentration of 5 µM and the buffers used were either potassium phosphate (100 mM, pH 7.4) for telo23-K+, EBR1-K+ and ds26-K+ or sodium phosphate (100 mM, pH 7.4) for telo22-Na+. […]\nas §5\n(§7) Absorbance spectra were recorded on a Cary 60 UV-Visible (UV-Vis) spectrophotometer using a room-light immune fibre optic probe with 10 mm path length. […]\n(§8) were corrected for background and buffer absorbance. […]"}, "[3]": {"test_system": "EBR1-K+ (mixed G4 from T. brucei)", "experiment": "UV-Vis titration, EBR1-K+", "type": "binding", "procedure": "as §1, §2, §3, §4, §6, §5, §7, §8"}, "[4]": {"test_system": "ds26-K+ (self-complementary duplex)", "experiment": "UV-Vis titration, ds26-K+", "type": "binding", "procedure": "as §1, §2, §3, §4, §6, §5, §7, §8"}, "[5]": {"test_system": "F21T-K+ (human telomeric G-quadruplex, mixed parallel/hybrid)", "conditions": "200 nM DNA, previously reported data for 1, cited from earlier work"}, "[6]": {"test_system": "F21T-Na+ (human telomeric G-quadruplex, antiparallel)", "conditions": "200 nM DNA, previously reported data for 1, ref S16, cited from earlier work"}, "[7]": {"test_system": "FmycT-K+ (c-Myc promoter G-quadruplex, parallel)", "conditions": "200 nM DNA, previously reported data for 1, cited from earlier work"}, "[8]": {"test_system": "telo22-Na+ (DNA, G4) AGGGTTAGGGTTAGGGTTAGGG", "experiment": "UV-Vis titration", "conditions": "independent/equivalent sites, 10 µM ligand, DNA up to 30 µM, apparent"}, "[9]": {"test_system": "EBR1-K+ (DNA, G4) GGGCAGGGGGTGATGGGGAGGAGCCAGGG", "experiment": "UV-Vis titration", "conditions": "independent/equivalent sites, 10 µM ligand, DNA up to 30 µM, apparent"}, "[10]": {"test_system": "ds26-K+ (DNA, duplex) CAATCGGATCGAATTCGATCCGATTG", "experiment": "UV-Vis titration", "conditions": "independent/equivalent sites, 10 µM ligand, DNA up to 30 µM, apparent"}, "[11]": {"test_system": "EBR1-K+ (DNA, G4) GGGCAGGGGGTGATGGGGAGGAGCCAGGG", "experiment": "CD titration", "conditions": "20 °C, 5 µM DNA, up to 10 equivalents ligand"}, "[12]": {"test_system": "F21T (DNA, G4) GGGTTAGGGTTAGGGTTAGGG", "experiment": "FRET melting", "conditions": "10 mM Li cacodylate, 5 µM ligand, 200 nM DNA"}, "[13]": {"test_system": "FMycT (DNA, G4) TTGAGGGTGGGTAGGGTGGGTAA", "experiment": "FRET melting", "conditions": "1 mM K+, 99 mM Li+; 10 mM Li cacodylate; 5 µM ligand, 200 nM DNA"}, "[14]": {"test_system": "F10T (DNA, hairpin, hexaethylene glycol (HEG) linker between 10 and 11) TATAGCTATATATAGCTATA", "experiment": "FRET melting", "conditions": "10 mM K+, 90 mM Li+; 10 mM Li cacodylate; 5 µM ligand, 200 nM DNA"}, "[15]": {"test_system": "telo22-Na+ (DNA, G4) AGGGTTAGGGTTAGGGTTAGGG", "experiment": "NMR titration", "conditions": "70 mM NaCl; 25 mM sodium phosphate pH 7.0, 10% D2O, 298 K; 185 µM DNA, up to 2 equivalents"}}, "note": "Read-outs that look alike come from different tables or passages of the source.", "data": [{"smiles": "CN1CCN(CCCN2C(=O)c3ccc4c5c(ccc(c35)C2=O)C(=O)N(CCCN2CCN(C)CC2)C4=O)CC1", "note": "[Compound 1]", "values": [{"measurement": "Ka, telo23-K+", "setting": "[1]", "value": "6×10^6"}, {"measurement": "Ka, telo22-Na+", "setting": "[2]", "value": "6×10^4"}, {"measurement": "Ka, EBR1-K+", "setting": "[3]", "value": "2×10^6"}, {"measurement": "Ka, ds26-K+", "setting": "[4]", "value": "1×10^6"}, {"measurement": "ΔTm F21T-K+", "setting": "[5]; 1 µM ligand, ref S16", "value": "10 ± 1", "unit": "°C"}, {"measurement": "ΔTm F21T-K+", "setting": "[5]; 5 μM ligand", "value": "14±2", "unit": "°C"}, {"measurement": "ΔTm F21T-K+", "setting": "[5]; 10 µM ligand, ref S16", "value": "20 ± 1", "unit": "°C"}, {"measurement": "ΔTm F21T-Na+", "setting": "[6]; 1 µM ligand", "value": "-2 ± 1", "unit": "°C"}, {"measurement": "ΔTm F21T-Na+", "setting": "[6]; 10 µM ligand", "value": "2 ± 1", "unit": "°C"}, {"measurement": "ΔTm FmycT-K+", "setting": "[7]; 1 µM ligand, ref S16", "value": "0 ± 1", "unit": "°C"}, {"measurement": "ΔTm FmycT-K+", "setting": "[7]; 5 μM ligand", "value": "7±2", "unit": "°C"}, {"measurement": "ΔTm FmycT-K+", "setting": "[7]; 10 µM ligand, ref S16", "value": "13 ± 1", "unit": "°C"}, {"measurement": "Ka", "setting": "[8]", "value": "6×10^4"}, {"measurement": "Ka", "setting": "[9]", "value": "2×10^6"}, {"measurement": "Ka", "setting": "[10]", "value": "1×10^6"}]}, {"smiles": "CN1CCN(CCCN2C(=O)c3ccc4c5ccc6c7c(ccc(c8ccc(c3c48)C2=O)c75)C(=O)N(CCCN2CCN(C)CC2)C6=O)CC1", "note": "[Compound 3]", "values": [{"measurement": "Ka, telo23-K+", "setting": "[1]", "value": "2×10^6"}, {"measurement": "selectivity for telo23-K+ G4 over EBR1-K+ G4", "setting": "[1]; ratio of Ka, UV-Vis", "value": "~7", "unit": "fold"}, {"measurement": "selectivity for telo23-K+ G4 over ds26-K+ duplex", "setting": "[1]; ratio of Ka, UV-Vis", "value": 40, "unit": "fold"}, {"measurement": "Ka, telo22-Na+", "setting": "[2]", "value": "8×10^5"}, {"measurement": "Ka, EBR1-K+", "setting": "[3]", "value": "3×10^5"}, {"measurement": "Ka, ds26-K+", "setting": "[4]", "value": "5×10^4"}, {"measurement": "Ka", "setting": "[8]", "value": "8×10^5"}, {"measurement": "Ka", "setting": "[9]", "value": "3×10^5"}, {"measurement": "Ka", "setting": "[10]", "value": "5×10^4"}]}, {"smiles": "CN1CCN(CCCNC(=O)c2ccc(Oc3ccc(C(C)(C)c4ccc(Oc5ccc(C(=O)NCCCN6CCN(C)CC6)c(C(=O)NCCCN6CCN(C)CC6)c5)cc4)cc3)cc2C(=O)NCCCN2CCN(C)CC2)CC1", "note": "[Compound 11]", "values": [{"measurement": "binding", "setting": "[11]", "value": "yes"}, {"measurement": "ΔTm", "setting": "[12]; 10 mM K+, 90 mM Li+", "value": "7±2", "unit": "°C"}, {"measurement": "ΔTm", "setting": "[12]; 100 mM Na+", "value": "1±1", "unit": "°C"}, {"measurement": "ΔTm", "setting": "[13]", "value": "5±1", "unit": "°C"}, {"measurement": "ΔTm", "setting": "[14]", "value": "0±1", "unit": "°C"}, {"measurement": "binding", "setting": "[15]", "value": "yes"}]}]}
